Reference: patent publication US20260262656A1, “COMPOSITION AND METHOD FOR PROMOTING COLONIZATION OF ARBUSCULAR MYCORRHIZAL FUNGI” (National University Corporation Tottori University, priority 2022, published 2026)

What was measured:
[1] = tested on: common broomrape (Orobanche minor) seeds; assay: Bioassay using common broomrape seeds (germination); type: cell-based; details: FIG. 5
Description: The seeds of the genus Orobanche and genus Striga plants, which are root-parasitic weeds, have the property to germinate in response to strigolactones released from the roots of agricultural plants which serve as hosts. These root-parasitic weeds are causing serious damage to crop production worldwide. This poses a hindrance to the external application of strigolactone as an agent for promoting arbuscular mycorrhizal fungus colonization.
Effect of gentiopicroside (GPS) on the germination of common broomrape (Orobanche minor), a parasitic weed of the genus Orobanche, was investigated. Experiments were performed according to the following experimental procedures.
(1) Common broomrape seeds were placed in a nylon mesh that had been shaped into a pouch (2 cm×2 cm×2 cm) by a sealer, and the opening of the pouch was closed.
(2) The seeds, together with the pouch, were placed in a 1% sodium hypochlorite aqueous solution to sterilize the surface for 20 minutes, and then washed 3 times with sterilized water.
(3) The pouch containing the seeds was placed on a filter paper dampened with sterilized water, and allowed to absorb water for 10 days at 25° C. in the dark.
(4) 6 mm paper discs contained in a 96-well plate were moistened by adding 15 μL distilled water dropwise.
(5) A new paper disc was placed on the paper disc of (4) above, and 20 μL of the test solution was added dropwise. Distilled water was used as a negative control (Mock) and 1 μM strigolactone (GR24) as a positive control. For the solvent for GPS, methanol was chosen due to its volatility.
(6) For treating the common broomrape seeds with both GR24 and GPS, one reagent was first added dropwise, and after complete evaporation of the solvent, the other reagent was then added.
(7) After the discs were left for 5 minutes to remove the solvent by evaporation, the common broomrape seeds of (3) above, which had been transferred to distilled water, were added together with the water as 5 μL drops.
(8) After 5 days of culturing at 25° C. in the dark, the germination rates of the common broomrape were measured.

[2] = tested on: Arbuscular mycorrhizal fungus Rhizophagus irregularis DAOM197198; assay: Hyphal branching of AM fungus cultured on gel media; type: cell-based; details: for hyphal branching activity compared with positive control GR24: GR24 at 100 nM, FIG. 1 and FIG. 2; for activity for promoting hyphal branching (hyphal branch number per spore): concentration range tested 1 to 100 nM, 7-10 days; for activity for promoting hyphal branching (hyphal branch number per spore) / hyphal branch numbers compared to the negative control: Steel test; for hyphal branch numbers compared to the negative control: FIG. 2
Experimental: • Arbuscular mycorrhizal fungus Rhizophagus irregularis DAOM197198 (Premier Tech Biotechnologies)
The spores of the AM fungi were separated and cultured on gels according to the conventional procedures outlined below.
1. In a 50 mL centrifuge tube, Gastrografin aqueous solutions having different densities were gently layered in the order of 50% (10 mL), 32% (5 mL), 16% (5 mL), and 8% (5 mL), and finally 5 mL of a spore suspension of R. irregularis (hereinafter called the AM fungus) was loaded, and centrifugation was performed at 500 g for 10 minutes.
2. The spores separated in the density gradient from the above were collected on a cell strainer and washed with sterilized water 3 times.
3. The spores were suspended in sterilized water at 4000 spores/mL.
4. A 4 μL drop (about 8 spores) each of the spore suspension diluted to 2000 spores/mL was put in the center portion of the M medium (New Phytol. 108:211-218), which had been dispensed in a 24-well plate at 350 μL each.
5. After it was left for 5 minutes to allow excess moisture to evaporate, 200 μL each of 0.3% Phytagel (3 mM MgSO4) at a temperature of about 50° C. was gently poured over the spores. Three to four wells were prepared per treatment group.
6. They were cultured in the dark for 5 days at 25° C. to let the spores germinate in advance.
1. rac-GR24 (hereinafter denoted as GR24), a synthetic strigolactone known to have a hyphal branching activity for the AM fungi, was used as a positive control. From the GR24 stored in acetone, the solvent was removed in vacuo, and GR24 was resuspended in distilled water and sterilized with a 0.45 μm filter.
2. For the other test substances, dry solids were dissolved in distilled water and filter-sterilized as above.
3. 200 μL each of the test solutions was added dropwise onto the Phytagel media comprising the germinated spores obtained in (2) above. The AM fungi were treated using sterilized water as a negative (Mock) control and with GR24 at a final concentration of 100 nM as a positive control.
4. Culturing was performed in the dark for 7-10 days at 25° C.
5. Hyphal branching numbers were measured under a stereomicroscope.
The hyphae that extended and branched directly from the hyphal stem had complex structures and branched well irrespective of the treatment conditions, and therefore they were excluded from the measurements of hyphal branching numbers. […]

Rhizophagus clarus HR1 = assay: Hyphal branching of a different AM fungus (as in Example 1); type: cell-based; details: FIG. 6
Experimental: Essentially the same experiments as described in Example 1 were carried out, except that a different arbuscular mycorrhizal fungus, Rhizophagus clarus HR1, was used. […] The compositions of the present disclosure can increase hyphal branching of diverse arbuscular mycorrhizal fungi included in the order Glomerales besides those exemplified here.

[3] = tested on: AM fungi colonizing chive (Allium schoenoprasum) root; assay: AM fungal colonization of host plant root in plant box: chive; type: in vivo
Experimental: (§1) To confirm that the identified active compounds not only promote hyphal branching of the AM fungi but also actually lead to increases of colonization and symbiosis with diverse plants, tests were carried out using lisianthus (Eustoma grandiflorum cv. Pink Thumb), tomato (Solanum lycopersicum L. cv. Sugar Lump), and chive (Allium schoenoprasum) as host plants.
(§2) Culturing of the host plants and AM fungal colonization and treatments with the active compounds were performed according to the following procedures. […]
(§3) Colonization rates of the AM fungi were measured according to the following procedures. […]
(§4) (4) Using a light microscope having an ocular lens fitted with an ocular micrometer, the stage was moved perpendicular to the root (in the Y-axis direction), and when the crosshair of the ocular micrometer touched the root, presence or absence of AM fungal hyphae in the root within the field of view was examined. The rate of hyphal invasion, i.e. colonization rate, as a total was calculated according to the following formula. […]
The rate of arbuscule formation was calculated according to the above formula by replacing the numerator in parentheses, on the right-hand side of the equation, with “number of fields of view in which arbuscules were seen”. […]

[4] = tested on: AM fungi colonizing tomato (Solanum lycopersicum L. cv. Sugar Lump) root; assay: AM fungal colonization of host plant root in plant box: tomato; type: in vivo; details: 4 weeks, FIG. 4b
Experimental: as §1, §2, §3, §4
(§5) The rate of arbuscule formation was calculated according to the above formula by replacing the numerator in parentheses, on the right-hand side of the equation, with “number of fields of view in which arbuscules were seen”.

[5] = tested on: AM fungi colonizing lisianthus (Eustoma grandiflorum cv. Pink Thumb) root; assay: AM fungal colonization of host plant root in plant box: lisianthus; type: in vivo; parameters: AM fungal colonization rates compared with positive control gibberellin (GA): dose or concentration left out as unconfirmed; details: for root colonization events compared to the mock treatment: 4 weeks
Experimental: as §1
Culturing of the host plants and AM fungal colonization and treatments with the active compounds were performed according to the following procedures.
(1) Plant box was assembled in 3 tiers: the top tier served as a lid having openings for ventilation, the middle tier was a box to which the culture soil (300 mL river sand) had been added, and the bottom tier was an empty box.
(2) The plant box of (1) above was sterilized by autoclaving (121° C., 20 minutes).
(3) To the culture soil of the middle box, 1000 spores of the AM fungi and 50 mL of the Hoagland hydroponic solution at a 1/10 concentration were added, and stirred with forceps. The active compounds such as GPS were added to the Hoagland hydroponic solution to treat the AM fungi and host plants.
(4) In order to prevent drying of the culture soil, 50 mL of the Hoagland hydroponic solution at a 1/10 concentration was also added to the bottom box. A twisted piece of KimWipe was placed through a hole provided at the bottom of the middle box, with the lower tip of the Kim Wipe soaked into the solution in the bottom box, and therefore the culture soil was maintained without becoming dry.
(5) Six seedlings of each host plant were planted per plant box, and cultured for 4 weeks in a culture chamber set at 24° C. and 14 hour light cycle.
(6) After completing the culturing period above, the root of each host plant was sampled and preserved in an FAA fixative solution.
Colonization rates of the AM fungi were measured according to the following procedures.
(1) The root fixed in said fixative solution was cut into 1 cm fragments and immersed in a 10% KOH aqueous solution, and heated at 90° C. for 15 minutes. […]
as §4, §5

Molecule	hyphal branching activity compared with positive control GR24 [2]	activity for promoting hyphal branching (hyphal branch number per spore) ([2]; FIG. 1)	hyphal branching (Rhizophagus clarus HR1)	hyphal branch numbers compared to the negative control [2]	other results
CC1=C[C@H](O/C=C2/C(=O)O[C@@H]3c4ccccc4C[C@H]23)OC1=O (racemic) [GR24, rac-GR24, reference compound]	–	–	–	–	germination rate of the common broomrape seeds ([1]; 1 μM GR24, 5 days at 25° C. in the dark): ~100%; hyphal branch number per spore compared to the Mock treatment ([2]; positive control, 100 nM, 7-10 days at 25° C. in the dark, FIG. 1): significant increase; hyphal branching (Rhizophagus clarus HR1; positive control, 100 nM): significant increases
C=C[C@@H]1C2=CCOC(=O)C2=CO[C@H]1O[C@@H]1O[C@H](CO)[C@@H](O)[C@H](O)[C@H]1O [GPS, Gentiopicroside]	comparable to or greater than that of GR24	significantly high activities for promoting hyphal branching	significant increases	–	germination of the common broomrape seeds ([1]; 1 to 1000 nM GPS alone, 5 days at 25° C. in the dark): did not germinate at all; germination rates of the common broomrape seeds ([1]; GPS treatment in the concurrent presence of GR24 treatment): ~100%; AM fungal colonization rate ([3]; 1 nM (lowest concentration tested), Dunnett's test): statistically significant increase; GPS concentration giving maximum average colonization rate of the AM fungi ([3]; 4 weeks, FIG. 4c): 10 nM; GPS concentration giving maximum average colonization rate of the AM fungi [4]: 100 nM; root colonization events compared to the mock treatment ([5]; 10 nM, Dunnett's test): statistically significant increase; root colonization events compared to the mock treatment ([5]; GPS treatments, FIG. 4a): increasing trend; outside-of-root hyphae of the AM fungi in the rhizosphere ([5]; GPS treatments, FIG. 4a, left): vigorously branching; AM fungal colonization rates compared with positive control gibberellin (GA) ([5]; positive control gibberellin): overall lower
COC(=O)C1=CO[C@@H](O[C@@H]2O[C@H](CO)[C@@H](O)[C@H](O)[C@H]2O)[C@@H]2C(CO)=CC[C@H]12 [Geniposide]	lower activities compared to GR24 and Loganin	–	–	increased the hyphal branch numbers significantly	–
COC(=O)C1=CO[C@@H](O[C@@H]2O[C@H](CO)[C@@H](O)[C@H](O)[C@H]2O)[C@@H]2[C@@H](C)[C@@H](O)C[C@H]12 [Loganin]	comparable to those of Gentiopicroside and Swertiamarin and the positive control GR24	–	–	had the activity for the AM fungi to promote hyphal branching	–
C=C[C@H]1[C@H](O[C@@H]2O[C@H](CO)[C@@H](O)[C@H](O)[C@H]2O)OC=C2C(=O)OCC[C@]21O [SWM, Swertiamarin]	comparable to or greater than that of GR24	significantly high activities for promoting hyphal branching	significant increases	–	–
Oleuropein	lower activities compared to GR24 and Loganin	–	–	increased the hyphal branch numbers significantly	–
